One substance from patent US20220296628A1, “RNA COMBINATIONS AND COMPOSITIONS WITH DECREASED IMMUNOSTIMULATORY PROPERTIES” (CureVac AG, priority 2019, published 2022) can be followed below.

In one data set the test system is human PBMCs. The experiment in a line: PBMC co-transfection of PpLuc mRNA and antagonists (Table 6), luciferase activity in cell lysate. The data set is classed as cell-based. To be noted: 24 hours post transfection, DOTAP, antagonist 20% weight, compared to PpLuc mRNA without admixture (FIG. 5B). The procedure:
The preparation of human PBMCs was performed according to example 2.1. For transfection experiments 2×10^5 human PBMCs per well were seeded into each well of a 96-well plate in X-Vivo 15 medium (Lonza). For preparation of DOTAP (vehicle) complexes containing both the antagonist (either 2-O-methylated oligonucleotide variants, RNA oligonucleotides, DNA oligonucleotides or small molecules) as well as PpLuc mRNA (SEQ ID NO: 82, same RNA design as shown in table 2), the antagonist was first added to PpLuc mRNA at a weight percentage of 20% (1:5 mRNA: oligo/small molecule). The molar ratio of PpLuc mRNA to antagonist was thus 1:45 (MW (Oligonucleotide)=2907 g/mol, MW (PpLuc mRNA)=652377 g/mol). DOTAP complexes containing PpLuc mRNA and antagonist were formed at a ratio of 5 μl of DOTAP per 1 μg of mRNA and 100 ng were transfected. […] To quantify background stimulation, PBMC were incubated either with DOTAP alone (“vehicle”) or RPMI (“medium”) only. […] Expression analysis was performed by measuring the luciferase activity, which is measured as relative light units (RLU) in a BioTek SynergyHT plate reader. PpLuc activity is measured at 5 seconds measuring time using 50 μl of lysate and 200 μl of luciferin buffer (75 μM luciferin, 25 mM Glycylglycin, pH 7.8 (NaOH), 15 mM MgSO4, 2 mM ATP).

Data set [1] has as its system mice (strain 129SV). The experiment in a line: Serum IFNα by ELISA 24 hours post LNP injection. The data set is classed as in vivo, mouse. The following applies: 24 hours post i.v. LNP injection, in a dose-dependent manner (oligo 20% or 6.7% mass), compared to PpLuc mRNA only (FIG. 4B). The procedure:
For preparation of Lipid nanoparticles (LNP) containing both PpLuc mRNA and 2-O-methylated oligonucleotide, first the 2′-O-methylated oligonucleotide was added to PpLuc mRNA at a weight percentage of either 20% or 6.7% (see Table 3). LNP containing PpLuc mRNA either with or without admixture of 2-O-methylated oligonucleotide were prepared using cationic lipid, cholesterol, PEG-lipid and a neutral lipid. The mRNA was diluted to 1 g/L in citrate buffer, pH 4. The ethanolic lipid solution was mixed with the aqueous RNA solution at a ratio of 1:3 (vol/vol) using a Nanoassemblr (PrecisionNanoSystems). The ethanol was then removed and the buffer replaced by 10 mM HEPES, pH 7.4 comprising 9% Sucrose by dialysis. […] To analyse the influence of the 2′-O-methylated oligonucleotide on immunostimulation, the concentrations of IFNγ, TNFα, IL-6, MIP-1β, RANTES, and MCP1 were measured in sera from blood collected 6 hours post LNP injection by Cytometric Bead Array (CBA), performed as described in paragraph 2.3. […] To further assess the influence of the 2′-O-methylated oligonucleotide on immunostimulation, the concentration of IFNα was measured in sera from blood collected 24 hours post LNP injection by ELISA.
In general terms: ELISA stands for enzyme-linked immunosorbent assay.

Data set [2] has as its system mice (strain 129SV). The experiment in a line: PpLuc expression in liver lysates after i.v. injection of LNP-formulated PpLuc mRNA with or without oligonucleotide. The following applies: 24 hours post i.v. injection, 10 μg or 30 μg mRNA (either dose), compared to PpLuc mRNA without oligonucleotide (FIG. 3). The data set is classed as in vivo, mouse. The protocol: For preparation of Lipid nanoparticles (LNP) containing both PpLuc mRNA and 2-O-methylated oligonucleotide, first the 2′-O-methylated oligonucleotide was added to PpLuc mRNA at a weight percentage of either 20% or 6.7% (see Table 3). LNP containing PpLuc mRNA either with or without admixture of 2-O-methylated oligonucleotide were prepared using cationic lipid, cholesterol, PEG-lipid and a neutral lipid. The mRNA was diluted to 1 g/L in citrate buffer, pH 4. The ethanolic lipid solution was mixed with the aqueous RNA solution at a ratio of 1:3 (vol/vol) using a Nanoassemblr (PrecisionNanoSystems). The ethanol was then removed and the buffer replaced by 10 mM HEPES, pH 7.4 comprising 9% Sucrose by dialysis. Finally, the LNP-formulated RNA was adjusted to 0.2 g/L.
For in vivo experiments, 8 weeks old female mice (around 25 g, strain 129SV) were injected with the various LNP formulations (see tables 4 and 5). 4 animals were used per group. […]
To prepare tissue lysates, first a steal bead was added to each liver. […] Plates were introduced into a plate reader (Berthold Technologies TriStar2 LB 942) and 50 μl per well of Beetle-Juice (PJK GmbH) containing luciferin as substrate for firefly luciferase was injected. Luciferase activity was quantified as relative light units (RLU). […]

“5′-GAG CGmG CCA-3′ (GAGCNGCCA; 2'-O-methyl guanosine at position 5; 9mer oligonucleotide; modified_base (5)..(5) n can be any nucleotide, wherein the nucleotide is 2-O-methylated, preferably a 2-O-methylated guanosine) [Gm18, 9-mer 2′-O-methylated RNA oligonucleotide; position 5 is 2′-O-methylated guanosine (Gm); antagonist of TLR7 and 8]”: the “expression of PpLuc in PBMCs” value in the data set on human PBMCs is “increases the expression”. In addition, the “release of IFNα in sera (ELISA)” value in the data set with mice (strain 129SV) [1] was “strongly decreases the release”. Further, the “expression of PpLuc in liver lysates (luciferase activity)” value in the data set on mice (strain 129SV) [2] is “increases the expression”.
